Publication PMC6925188, “PBRM1 acts as a p53 lysine-acetylation reader to suppress renal tumor growth” (Nature Communications, 2019)

Key:
Type in all cases: cell-based
[1] = tested on: ACHN, Caki-1 and Ren-01 cells; assay: Immunoblot of p53 targets, kidney cancer cells with PBRM1 shRNA knockdown; conditions: 50 μM etoposide, Caki-1 and Ren-01
Description: Lysates were analyzed by immunoblots. c RCC4 cells with or without p53 KO were transfected with vector or Flag-PBRM1 at the indicated amounts. […] Cells were harvested for RT-qPCR (g) or ChIP followed by qPCR (h). […] Representative data is shown in i. Quantification of cell cycle phase is shown in j. Source data are provided as a Source Data file.
After washing with ice-cold PBS, cells were scraped on ice and centrifuged at 10,000 × g for 1 min at 4 °C. For immunoblot analysis, cell pellets were lysed in 1% SDS containing a protease inhibitor cocktail followed by sonication with a FB50 sonic dismembrator (Fisher Scientific) at 20% amplitude for 15 s twice. After centrifuging for 10 min at 14,000 × g, the supernatants were combined with 5X SDS loading buffer (5% mercaptoethanol, 0.05% Bromophenol blue, 30% glycerol, 10% SDS, 250 mM Tris-HCl (pH 6.8)), boiled for 5 min and used in SDS-PAGE. After standard western blot procedures, the blots were developed using the ImageQuant LAS 4000 (GE healthcare Life Sciences) or ChemiDoc MP Imaging System (Bio-rad) with HyGLO™ Chemiluminescent HRP Detection Reagent (E2500, Denville Scientific) or Immobilon™ Western Chemiluminescent HRP Substrate (WBKLS0500, Millipore). […]
the indicated times. Lysates were analyzed via immunoblots. b. […]
were analyzed by immunoblots. c. […]
Lysates were analyzed via immunoblots. e. […]
Lysates were analyzed via immunoblots. f, g, h. […]

[2] = tested on: SLR24 cells; assay: Immunoblot of p53 targets, PBRM1-null SLR24 cells; conditions: 50 μM etoposide
Description: The band intensity of indicated protein was measured with Bio-rad Image Lab 4.1, and the relative ratios were calculated over the signal intensity of Vinculin in the corresponding lanes. c–e. Nude mice xenograft analyses were performed with Ren-01 PBRM1 KO cells expressing GFP (left flank) or PBRM1 (right flank). Representative photographs of a mouse (c, top) and tumors (c, bottom). Tumors were excised and weighed, and data are presented as mean ± SEM (d). p-values were calculated using the paired two-tailed Student’s t-test. Tumors were stained for PBRM1 and p21 expression via IHC (e). Scale bar: 200 μm. f–h Nude mice xenograft analyses were performed with Ren-01 PBRM1 KO cells expressing wild-type PBRM1 (left flank) or the BD4* mutant PBRM1 (right flank). Tumors were excised and weighed, and data are presented as mean ± SEM (g). p-values were calculated using the paired two-tailed Student’s t-test. Representative photographs of a mouse (f, top) and tumors (f, bottom). Tumors were stained for PBRM1 and p21 expression via IHC analysis (h). Scale bar: 200 μm. Source data are provided as a Source Data file.
After washing with ice-cold PBS, cells were scraped on ice and centrifuged at 10,000 × g for 1 min at 4 °C. For immunoblot analysis, cell pellets were lysed in 1% SDS containing a protease inhibitor cocktail followed by sonication with a FB50 sonic dismembrator (Fisher Scientific) at 20% amplitude for 15 s twice. After centrifuging for 10 min at 14,000 × g, the supernatants were combined with 5X SDS loading buffer (5% mercaptoethanol, 0.05% Bromophenol blue, 30% glycerol, 10% SDS, 250 mM Tris-HCl (pH 6.8)), boiled for 5 min and used in SDS-PAGE. After standard western blot procedures, the blots were developed using the ImageQuant LAS 4000 (GE healthcare Life Sciences) or ChemiDoc MP Imaging System (Bio-rad) with HyGLO™ Chemiluminescent HRP Detection Reagent (E2500, Denville Scientific) or Immobilon™ Western Chemiluminescent HRP Substrate (WBKLS0500, Millipore).

[3] = tested on: PBRM1-p53 interaction; assay: Co-immunoprecipitation of Flag-PBRM1 and Myc-p53 (anti-Flag M2) in H1299 cells
From the text: Fig. 1 PBRM1 and p53 display a physical association that is enhanced after DNA damage. a U2OS cells (left) and HEK293T cells (right) were transfected with vector or Flag-PBRM1 and harvested for immunoprecipitation with Flag-M2 beads and elution with 3X Flag peptide. […] Lysates were subjected to immunoprecipitation with Flag-M2 beads. […] Lysates were immunoprecipitated with p53 antibody. The bound PBRM1 and p53 were examined by immunoblots. Source data are provided as a Source Data file.
For anti-Flag immunoprecipitation, cell pellets harvested from one 10 cm culture dish were resuspended in 500 µl hypotonic buffer (10 mM Tris-HCl, pH 8.0, 1.5 mM MgCl2, 10 mM KCl) with protease and phosphatase inhibitors, 2 μM TSA and 10 mM NAM, and samples were incubated on ice for 15 min. Twenty-five microliters of Triton X-100 was added and samples were vortexed for 10 s. After centrifuging for 30 s at 14,000 × g, supernatants were removed and pellets were resuspended in 100 µl hypertonic buffer (20 mM Tris-HCl pH 8.0, 420 mM KCl, 1.5 mM MgCl2, 20% (v/v) glycerol) with protease and phosphatase inhibitors, 2 μM TSA and 10 mM NAM and vortexed for 10 s. Pellets were incubated on ice for 40 min and vortexed for 15 s every 10 min. After centrifuging for 10 min at 14,000 × g, supernatants were collected and diluted with 300 µl EBC buffer (50 mM Tris-HCl (pH 7.5), 120 mM NaCl, 0.5% NP-40) with protease and phosphatase inhibitors, 2 μM TSA and 10 mM NAM. […] Beads were washed four times with EBC buffer and eluted with 3X Flag peptide (F4799, Sigma-Aldrich) overnight at 4 °C. The input and Flag-elution were analyzed by SDS-PAGE and immunoblot.
Supplementary Figure 2. […]
a. Vectors, Flag-PBRM1 or Myc-p53 were transfected into H1299 cells as indicated, and treated with 5 µM nicotinamide or vehicle. Lysates were used for anti-Flag immunoprecipitation and 3X Flag peptide elution. The inputs and eluates were immunoblotted with the indicated antibodies. […]
Flag-PBRM1, wildtype or K382Q mutated Myc-p53 were transfected into H1299 cells with indicated combinations. Lysates were used for anti-Flagimmunoprecipitation followed by Flag peptide elution. […]

COc1cc([C@@H]2c3cc4c(cc3[C@@H](O[C@@H]3O[C@@H]5CO[C@@H](C)O[C@H]5[C@H](O)[C@H]3O)[C@H]3COC(=O)[C@H]23)OCO4)cc(OC)c1O [Etoposide]
p21 induction by p53 with PBRM1 knockdown [1]: significantly reduced p21 induction | p21, PUMA and MDM2 expression after DNA damage, wild-type vs BD4* PBRM1 or GFP ([2]; SLR24): significantly induced by wild-type but not BD4* mutant PBRM1 or GFP | p21 or PUMA induction ([2]; SLR24 cells): barely | p21 and PUMA induction with PBRM1-BD4* ([2]; SLR24 expressing PBRM1-BD4*): failed to induce their expression | p21 and PUMA induction with PBRM1-wt ([2]; SLR24 expressing PBRM1-wt, all time points): strongly induced | PBRM1 and exogenous p53 protein levels ([3]; H1299, etoposide 50 μM or bleomycin 10 μg/ml): neither the PBRM1 nor the exogenous p53 levels changed | PBRM1-p53 interaction ([3]; H1299 co-transfected with PBRM1 and p53, etoposide 50 μM): enhanced
